Results from patent US20050137194A1, “Combination of selected opioids with other active compounds for treatment of urinary incontinence” (Gruenenthal GmbH, priority 2002, published 2005).
Like-named read-outs stand apart in the source and are kept apart here. Marks after values point to notes of the source that are not given here.

Key:
naive female rats = assay: Cystometry test system on narcotized naive rats (suppression of spontaneous bladder contractions); format: in vivo, rat; conditions: i.v. cumulative; for minimal effective dose: Rattus norvegicus, iv, 10 min, read-out: Lowest dose at which for the first time contractions were absent over a period of 10 minutes
Method: The cystometric investigation on naive female rats was carried out in accordance with the method of Kimura et al. (Kimura et al., 1996, Int. J. Urol. 3: 218-227). The abdomen of narcotized, ventilated rats is opened up and the ureter is ligated. The urine is drained from the kidneys. A catheter is inserted into the bladder and fixed. […] After stable starting values have been reached, the test substance is administered i.v. in a cumulative manner. Influencing of the bladder function manifests itself via suppression of the spontaneous contractions. In this context, the absence of contractions over a period of 10 min is a parameter for the suppression.
With all the substances listed here, a suppression of the spontaneous contractions was measurable in the rats, table 3 showing the mean of the lowest dose of at least 2 experiments at which for the first time contractions were absent over a period of 10 minutes.
With all the substances listed here, a suppression of the spontaneous contractions was measurable in the rats, table 4 showing the mean of the lowest dose of at least 2 experiments at which for the first time contractions were absent over a period of 10 minutes.
With all the substances listed here, a suppression of the spontaneous contractions was measurable in the rats, table 5 showing the mean of the lowest dose of at least 2 experiments at which for the first time contractions were absent over a period of 10 minutes. […]

[1] = test system: naive, female Sprague-Dawley rats; assay: Cystometry test system on conscious naive rats; conditions: for action on bladder regulation (in words): conscious naive rats, i.v.
Method: Three days after implantation of bladder and venous catheters, the animals were investigated in the freely mobile, conscious state. The bladder catheter was connected to a pressure transducer and an injection pump. The animals were placed in metabolism cages which allowed measurement of the volume of urine. Physiological saline solution was infused into the emptied bladder (10 ml/h) and the bladder pressure and micturition volume were recorded continuously. After a stabilization phase, a 20 minute phase, which was characterized by normal, reproducible micturition cycles, was recorded. The following parameters, inter alia, were determined: • threshold pressure (TP, bladder pressure immediately before micturition), • bladder capacity (BC, residual volume after preceding micturition plus volume of the infused solution during the filling phase), • intercontraction interval (ICI, the interval of time between micturitions).

[2] = test system: female Sprague-Dawley rats; assay: Cystometry test system on conscious damaged rats (oxyhaemoglobin-induced bladder hyperactivity, urgency incontinence model)
Excerpt: This model simulates the urgency incontinence in an animal model; the oxyhaemoglobin (OxyHb) employed induces a bladder hyperactivity.
Three days after implantation of bladder and venous catheters, the animals were investigated in the freely mobile, conscious state. The bladder catheter was connected to a pressure transducer and an injection pump. The animals were placed in metabolism cages which allowed measurement of the volume of urine. Physiological saline solution was infused into the emptied bladder (10 ml/h) and the bladder pressure and micturition volume were recorded continuously. After a stabilization phase, a 20 minute phase, which was characterized by normal, reproducible micturition cycles, was recorded. The following parameters, inter alia, were determined: • threshold pressure (TP, bladder pressure immediately before micturition), • bladder capacity (BC, residual volume after preceding micturition plus volume of the infused solution during the filling phase), • intercontraction interval (ICI, the interval of time between micturitions) • micturition pressure (MP, maximum bladder pressure during a micturition).
After three reproducible micturition cycles had been recorded as the pre-value, 2.5×10^−4 M oxyhemoglobin in the vehicle=0.9% NaCl were infused into the bladder. The action on the cystometric parameters was recorded for about 20 minutes. At the action maximum the mean of 3 micturition cycles was determined and shown as a percentage change compared with the pre-value (table 8).

rat = rat model of rhythmic bladder contractions; Nippon-Shinyaku, WO 98/46216; cited from earlier work
[3] = mean of at least 3 independent experiments
[4] = after OxyHb 2.5 × 10^−4 M, n = 5, average ± standard deviation
[5] = pre-value before OxyHb 2.5 × 10^−4 M, n = 5, average ± standard deviation
[6] = 1.0 mg/kg iv, action maximum, mean of 3 micturition cycles

Molecule: CC[C@](O)(c1ccc(Cl)c(Cl)c1)[C@H](C)CN(C)C.Cl (racemic) [Compound 3, (2RS,3RS)-3-(3,4-dichlorophenyl)-1-dimethylamino-2-methyl-pentan-3-ol, hydrochloride]
- Lowest dose at which for the first time contractions were absent over a period of 10 minutes (naive female rats; mean of at least 2 experiments): 23.3 mg/kg

Molecule: COc1cccc([C@@]2(O)C[C@H](O)CC[C@@H]2CN(C)C)c1.Cl [Compound 25, (+)-(1R,3R,6R)-6-dimethylaminomethyl-1-(3-methoxy-phenyl)-cyclohexane-1,3-diol, hydrochloride]
- BC bladder capacity, change relative to the pre-value ([1]; 1.5 mg/kg iv): −14.0% *
- ICI interconnection interval, change relative to the pre-value ([1]; 1.5 mg/kg iv): −9.0 * %
- TP threshold pressure, change relative to the pre-value ([1]; 1.5 mg/kg iv): +62.0% *

Molecule: CCOC(=O)C1(c2ccccc2)CCC=CC1N(C)C (centres unmarked) [tilidine, reference compound]
- minimal effective dose (naive female rats; [3]): 0.5 mg/kg

Molecule: CN(C)C[C@H]1CCCC[C@@H]1c1cccc(O)c1.Cl [Compound 19, (+)-(1S,2S)-3-(2-dimethylaminomethyl-cyclohexyl)-phenol, hydrochloride]
- minimal effective dose (naive female rats; mean of at least 2 experiments): 0.1 mg/kg

Molecule: CN(C)C[C@@H]1CCCC[C@H]1c1cccc(O)c1.Cl [Compound 20, (−)-(1R,2R)-3-(2-dimethylaminomethyl-cyclohexyl)-phenol, hydrochloride]
- minimal effective dose (naive female rats; mean of at least 2 experiments): 0.5 mg/kg

Molecule: COc1cccc([C@@]2(O)C[C@@H](O)CC[C@@H]2CN(C)C)c1.Cl (racemic) [Compound 27, (1RS,3SR,6RS)-6-dimethylaminomethyl-1-(3-methoxy-phenyl)-cyclohexane-1,3-diol, hydrochloride]
- minimal effective dose (naive female rats; mean of at least 2 experiments): 115 mg/kg

Molecule: oxyhaemoglobin [OxyHb]
- BC bladder capacity, change (diff) in comparison with the pre-value ([2]; OxyHb 2.5 × 10^−4 M alone): diff: −29.3%
- ICI intercontraction interval, change (diff) in comparison with the pre-value ([2]; OxyHb 2.5 × 10^−4 M alone): diff: −32.9%
- MP micturition pressure, change (diff.) in comparison with the pre-value ([2]; OxyHb 2.5 × 10^−4 M alone): diff.: +64.4%
- TP threshold pressure, change (diff.) in comparison with the pre-value ([2]; OxyHb 2.5 × 10^−4 M alone): diff.: +12.8%
- BC bladder capacity, after (a) [2, 4]: a: 0.65 ± 0.06 ml
- ICI intercontraction interval, after (a) [2, 4]: a: 3.33 ± 0.18 min
- MP micturition pressure, after (a) [2, 4]: a: 97 ± 5 cm H2O
- TP threshold pressure, after (a) [2, 4]: a: 9.84 ± 1.56 cm H2O
- BC bladder capacity, before (b) [2, 5]: b: 0.92 ± 0.10 ml
- ICI intercontraction interval, before (b) [2, 5]: b: 4.96 ± 0.33 min
- MP micturition pressure, before (b) [2, 5]: b: 59 ± 8 cm H2O
- TP threshold pressure, before (b) [2, 5]: b: 8.72 ± 1.31 cm H2O

Molecule: CN(C)C[C@H]1CC[C@@H](O)C[C@]1(O)c1cccc(O)c1.Cl (racemic) [Compound 26, (1RS,3RS,6RS)-6-dimethylaminomethyl-1-(3-hydroxy-phenyl)-cyclohexane-1,3-diol, hydrochloride]
- BC bladder capacity, change relative to the pre-value ([1]; 3.0 mg/kg iv): +29.0% *
- ICI interconnection interval, change relative to the pre-value ([1]; 3.0 mg/kg iv): +27.0% *
- TP threshold pressure, change relative to the pre-value ([1]; 3.0 mg/kg iv): +86.0% ***

Molecule: COc1cccc(C(O)(CCN(C)C)C(C)(C)C)c1.Cl (racemic) [Compound 6, (3RS)-1-dimethylamino-3-(3-methoxy-phenyl)-4,4-dimethyl-pentan-3-ol, hydrochloride]
- Lowest dose at which for the first time contractions were absent over a period of 10 minutes (naive female rats; mean of at least 2 experiments): 16.7 mg/kg

Molecule: COc1cccc(C2(O)CCCCC2CN(C)C)c1 (racemic) [Compound 23, rac-tramadol, reference compound]
- effect on bladder function (in words) (rat): positive effect on bladder function
- minimal effective dose (naive female rats; mean of at least 2 experiments): 5.3 mg/kg

Molecule: C[C@H](CN(C)C)[C@@](C)(O)c1cccc(O)c1.Cl [Compound 9, (+)-(1R,2R)-3-(3-dimethylamino-1-hydroxy-1,2-dimethyl-propyl)-phenol, hydrochloride]
- BC bladder capacity, change relative to the pre-value ([1]; 0.5 mg/kg iv): +50% **
- ICI intercontraction interval, change relative to the pre-value ([1]; 0.5 mg/kg iv): +21% *
- TP threshold pressure, change relative to the pre-value ([1]; 0.5 mg/kg iv): +56% **

Molecule: C[C@H]1CC[C@H](CN(C)C)[C@@](O)(c2cccc(O)c2)C1.Cl [Compound 28, (+)-(1R,2R,5S)-3-(2-dimethylaminomethyl-1-hydroxy-5-methyl-cyclohexyl)-phenol, hydrochloride]
- minimal effective dose (naive female rats; mean of at least 2 experiments): 16.7 mg/kg

Molecule: CCC(O)(c1cccc(O)c1)C(C)CN(C)C.Cl (racemic) [Compound 7, (2RS,3RS)-3-(3-dimethylamino-1-ethyl-1-hydroxy-2-methyl-propyl)-phenol, hydrochloride]
- BC bladder capacity, change relative to the pre-value ([1]; 0.3 mg/kg iv): +32% *
- ICI intercontraction interval, change relative to the pre-value ([1]; 0.3 mg/kg iv): +28% *
- TP threshold pressure, change relative to the pre-value ([1]; 0.3 mg/kg iv): +95% **

Molecule: C[C@H](CN(C)C)[C@@](C)(O)c1cccc(O)c1.Cl [Compound 10, (+)-(1R,2R)-3-(3-dimethylamino-1-hydroxy-1,2-dimethyl-propyl)-phenol, hydrochloride]
- minimal effective dose (naive female rats; mean of at least 2 experiments): 0.2 mg/kg

Molecule: CC[C@](O)(c1cccc(C(F)F)c1)[C@H](C)CN(C)C.Cl (racemic) [Compound 4, (2RS,3RS)-3-(3-difluoromethyl-phenyl)-1-dimethylamino-2-methyl-pentan-3-ol, hydrochloride]
- minimal effective dose (naive female rats; mean of at least 2 experiments): 1.7 mg/kg

Molecule: CC[C@@](O)(c1cccc(OC)c1)[C@@H](C)CN(C)C.Cl [Compound 21, (−)-(2S,3S)-1-dimethylamino-3-(3-methoxy-phenyl)-2-methyl-pentan-3-ol, hydrochloride]
- action on bladder regulation (in words) [1]: does not contribute to the action

Molecule: CC[C@](O)(c1ccc(Cl)cc1)[C@H](C)CN(C)C.Cl (racemic) [Compound 14, (2RS,3RS)-3-(4-chlorophenyl)-1-dimethylamino-2-methyl-pentan-3-ol, hydrochloride]
- minimal effective dose (naive female rats; mean of at least 2 experiments): 20 mg/kg

Molecule: CN(C)C[C@H]1CC[C@@H](C(F)(F)F)C[C@]1(O)c1cccc(O)c1.Cl (racemic) [Compound 29, (1RS,2RS,5RS)-3-(2-dimethylaminomethyl-1-hydroxy-5-trifluoromethyl-cyclohexyl)-phenol, hydrochloride]
- minimal effective dose (naive female rats; mean of at least 2 experiments): 23.3 mg/kg

Molecule: C[C@H](CN(C)C)[C@@](C)(O)c1cccc(O)c1.Cl (racemic) [Compound 8, (1RS,2RS)-3-(3-dimethylamino-1-hydroxy-1,2-dimethyl-propyl)-phenol, hydrochloride]
- BC bladder capacity, change relative to the pre-value [1, 6]: +7%
- ICI intercontraction interval, change relative to the pre-value [1, 6]: +14.4%
- TP threshold pressure, change relative to the pre-value [1, 6]: +60% **

Molecule: CC[C@](O)(c1cccc(SC)c1)[C@H](C)CN(C)C.Cl (racemic) [Compound 5, (2RS,3RS)-1-dimethylamino-2-methyl-3-(3-methylsulfanyl-phenyl)-pentan-3-ol, hydrochloride]
- minimal effective dose (naive female rats; mean of at least 2 experiments): 2.3 mg/kg

Molecule: CC[C@](OC(C)=O)(c1cccc(OC)c1)[C@H](C)CN(C)C.Cl [Compound 12, (+)-(1R,2R)-acetic acid 3-dimethylamino-1-ethyl-1-(3-methoxy-phenyl)-2-methyl-propyl ester, hydrochloride]
- minimal effective dose (naive female rats; mean of at least 2 experiments): 30 mg/kg

Molecule: CCC(O)(c1cccc(OC)c1)C1(CN(C)C)CCCCC1.Cl (racemic) [Compound 13, (1RS)-1-(1-dimethylaminomethyl-cyclohexyl)-1-(3-methoxy-phenyl)-propan-1-ol, hydrochloride]
- minimal effective dose (naive female rats; mean of at least 2 experiments): 20 mg/kg

Molecule: COc1cccc([C@@]2(O)C[C@H](O)CC[C@@H]2CN(C)C)c1.Cl (racemic) [Compound 24, (1RS,3RS,6RS)-6-dimethylaminomethyl-1-(3-methoxy-phenyl)-cyclohexane-1,3-diol, hydrochloride]
- BC bladder capacity, change relative to the pre-value [1, 6]: −8.0%
- ICI intercontraction interval, change relative to the pre-value [1, 6]: −15% **
- TP threshold pressure, change relative to the pre-value [1, 6]: +44.0% ***
- BC bladder capacity, change relative to the pre-value ([1]; 3.0 mg/kg iv): −16.0% *
- ICI interconnection interval, change relative to the pre-value ([1]; 3.0 mg/kg iv): −16% *
- TP threshold pressure, change relative to the pre-value ([1]; 3.0 mg/kg iv): +94.0% **
- BC bladder capacity, change relative to the pre-value ([1]; 5.0 mg/kg iv): −26.0% *
- ICI interconnection interval, change relative to the pre-value ([1]; 5.0 mg/kg iv): −21.2%
- TP threshold pressure, change relative to the pre-value ([1]; 5.0 mg/kg iv): +69.0% *

Molecule: CC[C@](O)(c1cccc(OC)c1)[C@H](C)CN(C)C.Cl [Compound 2, (+)-(2R,3R)-1-dimethylamino-3-(3-methoxy-phenyl)-2-methyl-pentan-3-ol, hydrochloride]
- action on bladder regulation (in words) [1]: effectively active

Molecule: CN(C)C[C@H]1CCCC[C@]1(F)c1cccc(O)c1.Cl [Compound 18, (+)-(1R,2R)-3-(2-dimethylaminomethyl-1-fluoro-cyclohexyl)-phenol, hydrochloride]
- minimal effective dose (naive female rats; mean of at least 2 experiments): 0.2 mg/kg

Molecule: CCC1(c2cccc(O)c2)CCCCN(C)C1 (centres unmarked) [meptazinol, reference compound]
- minimal effective dose (naive female rats; [3]): 1 mg/kg
